{"source": "patent US20150192570A1", "about": "“METHODS FOR DETERMINING WHETHER A CYTOMEGALOVIRUS INFECTION IN A TRANSPLANTED PATIENT IS SUCEPTIBLE TO INDUCE ALLOGRAFT REJECTION” (priority 2012, published 2015)", "key": {"[1]": {"system": "MART.22 HLA-E-restricted CD8 T cells", "assay": "TNF production by MART.22 T cells in response to .221 cells pulsed with synthetic peptides (intracellular TNF-α staining)", "format": "cell-based, human", "conditions": ".221 cells loaded with synthetic peptide", "procedure": "For cytokine/perforine/granzyme intracellular staining, 1×10^5 T cells were stimulated in the presence of Brefeldin A (Sigma-Aldrich, 10 μg/ml) with 2×10^5 target cells (B-EBV cells or HAEC) for 6 h at 37° C., in the presence or not of blocking Abs. For peptide loading, target cells were incubated with peptides for 1 h at 37° C. before incubation with T cells. Cells were then fixed with 4% paraformaldehyde (Sigma-Aldrich), labeled with specific mAbs and analyzed by flow cytometry."}, "[2]": {"molecular_target": "classical HLA-I molecules on IFN-γ treated HAEC#495", "assay": "cell-based or functional assay"}, "[3]": {"system": "MART.22 HLA-E-restricted CD8 T cells", "assay": "Peptide/HLA-E*0101 tetramer staining of MART.22 T cells by flow cytometry", "format": "binding, human", "conditions": "PE-streptavidin tetramers, 1 h", "description": "A/ TNF production in response to stimulation with .221 cells pulsed with synthetic peptides. .221 cells were incubated for 1 h with range concentrations of the indicated peptides before addition of MART.22 T cells. After 6 h, T cells were fixed, permeabilized and stained for intracellular TNF-α. Results are expressed as percentage of TNF-producing T cells. B/ Peptide-MHC tetramer staining of HLA-E-restricted CD8 T cells. MART.22 T cells were incubated for 1 h with biotyniled HLA-E monomers refolded with the indicated peptides and tetramerized with PE-coupled streptavidin. Peptide-HLA-E tetramers staining was assessed by flow cytometry and MFI are indicated.\nPeptides VMAPRTLLL and VMAPRTLVL (HLA-A*01- and HLA-A*02-derived signal peptides respectively) with purity >85% were purchased from Eurogentec (Angers, France). HLA-E*0101/peptide monomers were generated by the recombinant protein facility of SFR26 (Nantes, France).\nFor membrane staining, 2×10^5 cells were incubated at 4° C. with 10 μg/ml of Ab (specific or isotype control) or tetramers for 30 min or 1 h respectively. When non-conjugated mAb were used, a second incubation with PE-conjugated goat F(ab′)2 fragment anti-Mouse IgG (Beckman Coulters) was performed. 5×10^4 cells were acquired in the viable cells gate on a FACScalibur flow cytometer using CellQuest software (Becton Dickinson)."}, "[4]": {"system": "MART.22 HLA-E-restricted CD8 T cells", "assay": "TNF production by MART.22 against unrecognized endothelial culture HAEC#402 pulsed with synthetic peptides", "format": "cell-based, human", "conditions": "HAEC#402 loaded with 10^2 μM of peptide", "description": "A/ Reactivity of HLA-E-restricted T cells against unrecognized endothelial cultures pulsed with synthetic peptides. HAECs were incubated for 1 h with range concentrations of the indicated peptides before MART.22 T cells were added. After 6 h, T cells were fixed, permeabilized and stained for intracellular TNF-α. Results are expressed as percentage of TNF-producing T cells. B/ Impact of KIR2DL2-ligands expression by HAECs on HLA-E-restricted T cells alloreactivity. Percentages of TNF-producing MART.22 T cells are shown for HAECs with none, one or two protective HLA-C alleles. C/ Reactivity of HLA-E-restricted T cells against unrecognized endothelial cultures in the presence of blocking antibodies. HAECs were incubated with MART.22 T cells in the presence or not of indicated concentrations of blocking antobodies. After 6 h, T cells were fixed, permeabilized and stained for intracellular TNF-α. Results are expressed as percentage of TNF-producing T cells.\n(§1) For cytokine/perforine/granzyme intracellular staining, 1×10^5 T cells were stimulated in the presence of Brefeldin A (Sigma-Aldrich, 10 μg/ml) with 2×10^5 target cells (B-EBV cells or HAEC) for 6 h at 37° C., in the presence or not of blocking Abs. […] Cells were then fixed with 4% paraformaldehyde (Sigma-Aldrich), labeled with specific mAbs and analyzed by flow cytometry."}, "[5]": {"molecular_target": "protective HLA-C molecules (KIR2DL2 ligands) expressed on HAEC", "assay": "cell-based or functional assay"}, "[6]": {"system": "HAEC", "assay": "Surface expression of HLA-E and total HLA-I on endothelial cultures after IFN-γ treatment (flow cytometry)", "format": "cell-based, human", "conditions": "IFN-γ 50 U/mL, 48 h", "description": "(§2) A/ impact of IFN-γ treatment on surface expression of HLA-E (thick lines) and total HLA-I (dotted lines) molecules by endothelial cultures. MFI are indicated. B/ HLA-E-restricted CD8 T cells cytotoxicity toward endothelial cultures treated or not with IFN-γ. 103 ^51 Cr-labeled HAECs pretreated (closed circles) or not (open circle) with IFN-γ were co-cultured for 4 h with T cells at various E:T ratio. Cytotoxic activity was assessed trought measure of Chromium release in the supernatants. Percentages of specific lysis are indicated. Means and standard deviations of triplicate wells are shown for one representative experiments out of three performed. C/ HLA-E-restricted CD8 T cells cytokine production upon stimulation with endothelials cultures treated or not with IFN-γ. MART.22 T cells were fixed, permeabilized and stained for intracellular cytokines following 6 h of incubation with HAECs pretreated (black bars) or not (white bars) with INF-γ. Data are expressed as percentages of intracellular cytokine secreting T cells upon stimulation. D/ HLA-E-restricted CD8 T cells cytokine production upon stimulation with endothelials cultures treated or not by IFN-γ, in the presence of blocking antibodies. […] Data are expressed as percentages of intracellular TNF secreting T cells upon stimulation. […]"}, "[7]": {"system": "HAEC", "assay": "Recognition (lysis, cytokine production) of IFN-γ treated endothelial cultures by MART.22", "format": "cell-based, human", "description": "as §2, with “stimulation.” for “stimulation. D/ HLA-E-restricted CD8 T cells cytokine production upon stimulation with endothelials cultures treated or not by IFN-γ, in the presence of blocking antibodies.”\nas §1\nTarget cells were labeled with 100 μCi Na^51CrO4 (Oris Industrie, Gif-sur-Yvette, France) for 1 h at 37° C., and incubated 4 h at 37° C., with effectors T cells at various E/T ratios. […] Percentage of target cell lysis was calculated according to the following formula: [(experimental release−spontaneous release)/(maximum release−spontaneous release)]×100. Maximum and spontaneous releases were determined by, respectively, adding 0.1% Triton X-100 or medium to ^51Cr-labeled target cells in the absence of T cells."}}}
{"molecule": "VTAPRTVLL", "values": [{"measurement": "recognition of peptide-pulsed .221 cells by MART.22", "setting": "[1]", "result": "not recognized at all"}]}
{"molecule": "VTAPRTLLL", "values": [{"measurement": "recognition of peptide-pulsed .221 cells by MART.22", "setting": "[1]", "result": "not recognized at all"}]}
{"molecule": "ILT-2 expressed by MART.22 T cells (from UniProt Q8NHL6 24-650) (receptor)", "values": [{"measurement": "TNF-α producing T cells against IFN-γ treated endothelial cells at the maximal dose of mAb against classical HLA-I molecules", "setting": "[2]", "result": 69, "unit": "%"}]}
{"molecule": "CSCC[C@H](NC(=O)[C@@H](N)C(C)C)C(=O)N[C@@H](C)C(=O)N1CCC[C@H]1C(=O)N[C@@H](CCCNC(=N)N)C(=O)N[C@H](C(=O)N[C@@H](CC(C)C)C(=O)N[C@@H](CC(C)C)C(=O)N[C@@H](CC(C)C)C(=O)O)[C@@H](C)O", "note": "[VMAPRTLLL]", "values": [{"measurement": "binding of HLA-E*0101 tetramers refolded with the peptide to MART.22", "setting": "[3]", "result": "bind"}, {"measurement": "TNF secreting T cells", "setting": "[4]", "result": 40, "unit": "%"}]}
{"molecule": "KIR2DL2 expressed by MART.22 T cells (from UniProt P43627 22-348) (receptor)", "values": [{"measurement": "TNF-α producing T cells against IFN-γ treated endothelial cells at the maximal dose of mAb against classical HLA-I molecules", "setting": "[2]", "result": 69, "unit": "%"}, {"measurement": "TNF producing T cells, endothelial cells with no appropriate HLA-C allele (HAEC#323)", "setting": "[5]", "result": 75, "unit": "%"}, {"measurement": "TNF producing T cells, endothelial cells with only one appropriate HLA-C allele (HAEC#112, #331 and #495)", "setting": "[5]", "result": 54, "unit": "%"}, {"measurement": "TNF producing T cells, mean value for endothelial cells with two appropriate HLA-C alleles (HAEC#116, #337 and #402)", "setting": "[5]", "result": 18, "unit": "%"}, {"measurement": "TNF-producing T cells against HAEC#402 in the presence of anti-HLA-A/B/C Abs", "setting": "[5]", "result": "< 25", "unit": "%"}]}
{"molecule": "CSCC[C@H](NC(=O)[C@@H](N)C(C)C)C(=O)N[C@@H](C)C(=O)N1CCC[C@H]1C(=O)N[C@@H](CCCNC(=N)N)C(=O)N[C@H](C(=O)N[C@H](C(=O)N[C@@H](CC(C)C)C(=O)N[C@@H](CC(C)C)C(=O)O)C(C)C)[C@@H](C)O", "note": "[VMAPRTVLL]", "values": [{"measurement": "TNF secreting T cells", "setting": "[4]", "result": 18, "unit": "%"}]}
{"molecule": "IFN-γ: recombinant human IFN-γ (50 U/mL, Imukin, Boehringer Ingelheim)", "values": [{"measurement": "HLA-E and total HLA-I surface expression on endothelial cells", "setting": "[6]", "result": "enhances"}, {"measurement": "MART.22 reactivity against IFN-γ treated HAEC#116", "setting": "[7]; HAEC#116, unpublished data", "result": "completely abolished"}, {"measurement": "MART.22 mediated lysis and cytokine production", "setting": "[7]; IFN-γ treated endothelial cells", "result": "decreased"}, {"measurement": "TNF-α producing T cells upon stimulation with HAEC#495", "setting": "[7]; after IFN-γ treatment, 61% untreated", "result": 33, "unit": "%"}]}
{"molecule": "VMAPRTLVL [HLA-A*02-derived signal peptide, identical to a CMV UL40 peptide]", "values": [{"measurement": "recognition of peptide-pulsed .221 cells by MART.22", "setting": "[1]", "result": "not recognized at all"}, {"measurement": "binding of HLA-E*0101 tetramers refolded with the peptide to MART.22", "setting": "[3]", "result": "no significant binding"}]}
